# Results reported in the supplement of paper PMC11208160.
# Test: recombinant barcode read abundance after kanamycin selection (control-corrected) (log10(CPM+1)); higher = more efficient recombination; sequences stand for … in AGTGCAGAGAAAATCGGCCAGTTTTCTCTGCCTGCAGTCCGCATGCCGT…AGATTTATGCAGCGGACTGCCTTTCTCCCAAAGTGATAAACCGGACAGTATCATGGACCGGTTTTCCCGGTAATCCGTATTTGCAAGGTTGGTTTCACT; site = the 11-nt target
# In short: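 The screen was pooled in E. coli and paired targets with IS621 bridge RNA target-binding loops. Recombination efficiency is taken from barcode counts per million at recombinant junctions, averaged and adjusted against the control. Values, in the form log10(CPM+1), come from duplicate plating on chloramphenicol/ampicillin LB agar or on chloramphenicol/ampicillin/kanamycin with 0.1 mM IPTG.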
# 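Further: IS621 recombinase and bridge RNA in Escherichia coli cells.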
row,Sequence,recombinant barcode read abundance (log10)
1,TAGCCTACTTGGGTTCTAACCTGTTGCCG (site TAGCCTACTCG),0.725
2,TAGCCTACTTGGGTTCTAACCTGTTGCCG (site TAGGCTCCTCG),0.0184
3,TAGCCTACTTGGGTTCTAACCTGTTGCGA (site TAGCCTACTAC),0.0304
4,TAGCCTACTTGGGTTCTAACCTGTTGCGA (site TAGCCTACTCC),0.416
5,TAGCCTACTTGGGTTCTAACCTGTTGCGA (site TAGCCTACTGC),0.00843
6,TAGCCTACTTGGGTTCTAACCTGTTGCGA (site TAGCCTACTTC),1.2
7,TAGCCTACTTGGGTTCTAACCTGTTGCGC (site TAGCCTACTAC),0.0597
8,TAGCCTACTTGGGTTCTAACCTGTTGCGC (site TAGCCTACTCC),0.0856
9,TAGCCTACTTGGGTTCTAACCTGTTGCGC (site TAGCCTACTGC),1.84
10,TAGCCTACTTGGGTTCTAACCTGTTGCGC (site TAGCCTACTTC),0.0255
11,TAGCCTACTTGGGTTCTAACCTGTTGCGT (site TAGCCTACTAC),0.581
12,TAGCCTACTTGGGTTCTAACCTGTTGCGT (site TAGCCTACTCC),0.0265
13,TAGCCTACTTGGGTTCTAACCTGTTGCGT (site TAGCCTACTGC),0.0357
14,TAGCCTACTTGGGTTCTAACCTGTTGCGT (site TAGCCTACTTC),0
15,TAGCCTTCTTGGGTTCTAACCTGTTGCAG (site TAGCCTTCTCT),1.14
16,TAGCCTTCTTGGGTTCTAACCTGTTGCAG (site TAGGCGTCTCT),0.0752
17,TAGCGGACTTGGGTTCTAACCTGTTGCCT (site TAGCAGACTAG),0.106
18,TAGCGGACTTGGGTTCTAACCTGTTGCCT (site TAGCCGACTAG),0
19,TAGCGGACTTGGGTTCTAACCTGTTGCCT (site TAGCGGACTAG),1.28
20,TAGCGGACTTGGGTTCTAACCTGTTGCCT (site TAGCTGACTAG),0.0737
21,TAGCGTCCTTGGGTTCTAACCTGTTGCAC (site TAGCGTCCTGT),1.11
22,TAGCGTCCTTGGGTTCTAACCTGTTGCAC (site TCGCGTCCTTT),0.157

row,Sequence,recombinant barcode read abundance (log10)
1,TAGCTCCCTTGGGTTCTAACCTGTTGCCA (site TAGCTCCCTAG),0.676
2,TAGCTCCCTTGGGTTCTAACCTGTTGCCA (site TAGCTCCCTCG),0.0851
3,TAGCTCCCTTGGGTTCTAACCTGTTGCCA (site TAGCTCCCTGG),0.0734
4,TAGCTCCCTTGGGTTCTAACCTGTTGCCA (site TAGCTCCCTTG),0.662
5,TAGCTTACTTGGGTTCTAACCTGTTGCCG (site TAACTTACTAG),0.114
6,TAGCTTACTTGGGTTCTAACCTGTTGCCG (site TAGCTTACTCG),0.523
7,TAGGATACTTGGGTTCTAACCTGTTGCAA (site TAGGATACTAT),0.0732
8,TAGGATACTTGGGTTCTAACCTGTTGCAA (site TAGGATACTCT),0.401
9,TAGGATACTTGGGTTCTAACCTGTTGCAA (site TAGGATACTGT),0.0992
10,TAGGATACTTGGGTTCTAACCTGTTGCAA (site TAGGATACTTT),1.98
11,TAGGATTCTTGGGTTCTAACCTGTTGCGC (site ACCATACCTAT),0.114
12,TAGGATTCTTGGGTTCTAACCTGTTGCGC (site TAGGATTCTGC),2.55
13,TAGGATTCTTGGGTTCTAACCTGTTGCGT (site TAGGATGCTAC),0.144
14,TAGGATTCTTGGGTTCTAACCTGTTGCGT (site TAGGATTCTAC),2.61
15,TAGGCATCTTGGGTTCTAACCTGTTGCTC (site TAGACATCTGA),0.206
16,TAGGCATCTTGGGTTCTAACCTGTTGCTC (site TAGCCATCTGA),0.36
17,TAGGCATCTTGGGTTCTAACCTGTTGCTC (site TAGGCATCTGA),0.95
18,TAGGCATCTTGGGTTCTAACCTGTTGCTC (site TAGTCATCTGA),0.115
19,TAGGCCACTTGGGTTCTAACCTGTTGCTT (site TAGGCCACTAA),1.61
20,TAGGCCACTTGGGTTCTAACCTGTTGCTT (site TAGGCCACTAC),1.17
21,TAGGCCACTTGGGTTCTAACCTGTTGCTT (site TAGGCCACTAG),0.36
